Values of other authors, collected in patent US20160002278A1, “Pharmaceutical Compositions for Rectal Administration” (CIPLA LIMITED, priority 2013, published 2016).

Assays:
[1] = oral administration
[2] = animal study, distributed to other vital organs such as lungs

- bioavailability (after oral administration): 1%
- absorption from the gastrointestinal tract (following oral (PO) administration): minimally absorbed
SMILES: CCc1c(Cl)c(O)c(Cl)c(O)c1C(=O)O[C@H]1[C@H](O)[C@H](OC)[C@H](OC/C2=C\C=C\C[C@H](O)/C(C)=C/[C@H](CC)[C@@H](O[C@@H]3OC(C)(C)[C@@H](OC(=O)C(C)C)[C@H](O)[C@@H]3O)/C(C)=C/C(C)=C/C[C@@H]([C@@H](C)O)OC2=O)O[C@@H]1C [Fidaxomicin]
- adverse effects [1]: hives, difficulty in breathing, swelling of face, lips, tongue or throat
- organ findings after oral administration [2]: dark red discoloration of the lungs and lymph nodes
